Test results: PubChem BioAssay (NCI)
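Test compounds were applied to cells in 96-well plates for 48 hours at 5 doses. The concentration for full growth arrest is given as TGI.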

What was measured:
Experiment in all cases: growth of human tumour cells (NCI), 48 h
786-0 renal = system: 786-0 renal
A498 renal = system: A498 renal
A549 NSCLC = system: A549 NSCLC
ACHN renal = system: ACHN renal
BT-549 breast = system: BT-549 breast
CAKI-1 renal = system: CAKI-1 renal
CCRF-CEM leukemia = system: CCRF-CEM leukemia
COLO 205 colon = system: COLO 205 colon
DU-145 prostate = system: DU-145 prostate
HCC-2998 colon = system: HCC-2998 colon
HCT-116 colon = system: HCT-116 colon
HCT-15 colon = system: HCT-15 colon
HL-60(TB) leukemia = system: HL-60(TB) leukemia
HOP-62 NSCLC = system: HOP-62 NSCLC
HS 578T breast = system: HS 578T breast
HT29 colon = system: HT29 colon
IGROV1 ovarian = system: IGROV1 ovarian
K-562 leukemia = system: K-562 leukemia
KM12 colon = system: KM12 colon
LOX IMVI melanoma = system: LOX IMVI melanoma
M14 melanoma = system: M14 melanoma
MALME-3M melanoma = system: MALME-3M melanoma
MCF7 breast = system: MCF7 breast
MDA-MB-231 breast = system: MDA-MB-231 breast
MDA-MB-435 = system: MDA-MB-435
MDA-N = system: MDA-N
MOLT-4 leukemia = system: MOLT-4 leukemia
NCI-H226 lung = system: NCI-H226 lung
NCI-H23 lung = system: NCI-H23 lung
NCI-H460 lung = system: NCI-H460 lung
NCI-H522 lung = system: NCI-H522 lung
NCI/ADR-RES ovarian = system: NCI/ADR-RES ovarian
OVCAR-3 ovarian = system: OVCAR-3 ovarian
OVCAR-4 ovarian = system: OVCAR-4 ovarian
OVCAR-5 ovarian = system: OVCAR-5 ovarian
OVCAR-8 ovarian = system: OVCAR-8 ovarian
PC-3 prostate = system: PC-3 prostate
RPMI-8226 leukemia = system: RPMI-8226 leukemia
RXF 393 renal = system: RXF 393 renal
SF-268 CNS = system: SF-268 CNS
SF-295 CNS = system: SF-295 CNS
SF-539 CNS = system: SF-539 CNS
SK-MEL-2 melanoma = system: SK-MEL-2 melanoma
SK-MEL-28 melanoma = system: SK-MEL-28 melanoma
SK-MEL-5 melanoma = system: SK-MEL-5 melanoma
SK-OV-3 ovarian = system: SK-OV-3 ovarian
SN12C renal = system: SN12C renal
SNB-19 CNS = system: SNB-19 CNS
SNB-75 CNS = system: SNB-75 CNS
SR leukemia = system: SR leukemia
SW-620 colon = system: SW-620 colon
T-47D breast = system: T-47D breast
TK-10 renal = system: TK-10 renal
U251 CNS = system: U251 CNS
UACC-257 melanoma = system: UACC-257 melanoma
UACC-62 melanoma = system: UACC-62 melanoma
UO-31 renal = system: UO-31 renal

Q: With `c1cc2nnc1SCCCSc1ccc(nn1)SCCCSc1ccc(nn1)SCCCS2` as the compound, how does the TGI (786-0 renal) read?
A: > 100 µM

Q: And the TGI (A498 renal)?
A: > 100 µM

Q: What about the TGI (A549 NSCLC) of the same compound?
A: > 100 µM

Q: What about the TGI (ACHN renal) of the same compound?
A: > 100 µM

Q: And the TGI (BT-549 breast)?
A: > 100 µM

Q: And the TGI (CAKI-1 renal)?
A: > 100 µM

Q: And the TGI (CCRF-CEM leukemia)?
A: > 100 µM

Q: And the TGI (COLO 205 colon)?
A: > 100 µM

Q: And the TGI (DU-145 prostate)?
A: > 100 µM

Q: What about the TGI (HCC-2998 colon) of the same compound?
A: > 100 µM

Q: And the TGI (HCT-116 colon)?
A: > 100 µM

Q: And the TGI (HCT-15 colon)?
A: > 100 µM

Q: What about the TGI (HL-60(TB) leukemia) of the same compound?
A: > 100 µM

Q: And the TGI (HOP-62 NSCLC)?
A: > 100 µM

Q: What about the TGI (HS 578T breast) of the same compound?
A: > 100 µM

Q: And the TGI (HT29 colon)?
A: > 100 µM

Q: And the TGI (IGROV1 ovarian)?
A: > 100 µM

Q: What about the TGI (K-562 leukemia) of the same compound?
A: > 100 µM

Q: What about the TGI (KM12 colon) of the same compound?
A: > 100 µM

Q: What about the TGI (LOX IMVI melanoma) of the same compound?
A: > 100 µM

Q: What about the TGI (M14 melanoma) of the same compound?
A: > 100 µM

Q: What about the TGI (MALME-3M melanoma) of the same compound?
A: > 100 µM

Q: And the TGI (MCF7 breast)?
A: > 100 µM

Q: And the TGI (MDA-MB-231 breast)?
A: > 100 µM

Q: What about the TGI (MDA-MB-435) of the same compound?
A: > 100 µM

Q: And the TGI (MDA-N)?
A: > 100 µM

Q: What about the TGI (MOLT-4 leukemia) of the same compound?
A: > 100 µM

Q: And the TGI (NCI-H226 lung)?
A: > 100 µM

Q: What about the TGI (NCI-H23 lung) of the same compound?
A: > 100 µM

Q: And the TGI (NCI-H460 lung)?
A: > 100 µM

Q: And the TGI (NCI-H522 lung)?
A: > 100 µM

Q: And the TGI (NCI/ADR-RES ovarian)?
A: > 100 µM

Q: What about the TGI (OVCAR-3 ovarian) of the same compound?
A: > 100 µM

Q: What about the TGI (OVCAR-4 ovarian) of the same compound?
A: > 100 µM

Q: And the TGI (OVCAR-5 ovarian)?
A: > 100 µM

Q: And the TGI (OVCAR-8 ovarian)?
A: > 100 µM

Q: What about the TGI (PC-3 prostate) of the same compound?
A: > 100 µM

Q: What about the TGI (RPMI-8226 leukemia) of the same compound?
A: > 100 µM

Q: And the TGI (RXF 393 renal)?
A: > 100 µM

Q: What about the TGI (SF-268 CNS) of the same compound?
A: > 100 µM

Q: What about the TGI (SF-295 CNS) of the same compound?
A: > 100 µM

Q: And the TGI (SF-539 CNS)?
A: > 100 µM

Q: And the TGI (SK-MEL-2 melanoma)?
A: > 100 µM

Q: And the TGI (SK-MEL-28 melanoma)?
A: > 100 µM

Q: And the TGI (SK-MEL-5 melanoma)?
A: > 100 µM

Q: What about the TGI (SK-OV-3 ovarian) of the same compound?
A: > 100 µM

Q: What about the TGI (SN12C renal) of the same compound?
A: > 100 µM

Q: And the TGI (SNB-19 CNS)?
A: > 100 µM

Q: And the TGI (SNB-75 CNS)?
A: 83.4 µM

Q: And the TGI (SR leukemia)?
A: > 100 µM

Q: What about the TGI (SW-620 colon) of the same compound?
A: > 100 µM

Q: And the TGI (T-47D breast)?
A: > 100 µM

Q: What about the TGI (TK-10 renal) of the same compound?
A: > 100 µM

Q: What about the TGI (U251 CNS) of the same compound?
A: > 100 µM

Q: What about the TGI (UACC-257 melanoma) of the same compound?
A: > 100 µM

Q: What about the TGI (UACC-62 melanoma) of the same compound?
A: > 100 µM

Q: What about the TGI (UO-31 renal) of the same compound?
A: > 100 µM
